One data set concerns PCSK9 mRNA. Kind of data set: Real time PCR, HepG2 PCSK9 mRNA. Type of data set: cell-based, human. The conditions noted are these: HepG2, Mdivi-1 50 μM, 24 hours. The text has this: Human cells and mouse liver was homogenized with TriZolTM (Life Technologies, Grand Island, N.Y.) to isolate RNA. QuantiTectTM Reverse Transcription Kit (Qiagen, Hilden, Germany) was used for reverse transcription on total RNA. cDNA was generated using the Quanta gScriptTM cDNA Synthesis Kit (Bioscience Inc., Gaithersburg, Md.). mRNA levels were quantified on a 7900HT real-time PCR system (Thermo Fisher Scientific) using TaqManTM real-time PCR with the following probes: Hs02758991_g1 (human GAPDH); Mm99999915_g1 (mouse Gapdh); Hs00236329 m1 (human BCL2L1); Hs00247147_m1 (human DRP1); Hs00545399_m1 (human PCSK9); Mm01263610_m1 (mouse Pcsk9); Hs00168352_m1 (human HMGCR); […]); Hs00181192_m1 (human LDLR); Mm00440169_m1 (mouse Ldlr); Hs01088691_m1 (human SREBP1); Mm00550338_m1 (mouse Srebp1); Hs00231674_m1 (human SREBP1a); custom primer (human SREBP1c); Hs01081784_m1 (human SREBP2); Mm01306292_m1 (mouse Srebp2); Hs01005622_m1 (human FASN); […]); Hs00167041_m1 (human HNF1A); Mm00493434_m1 (mouse Hnf1a); Hs00171168 (human APOE); Hs01059118_m1 (human ABCA1); Hs01103582_s1 (human JUN). Mouse SREBP-1c was analyzed by SYBERTM green PCR with the following primers: [NT] All expression levels were normalized to GAPDH using the ΔΔCT method.
(In general: Quantitative PCR measures a nucleic acid by following its amplification.)

A further data set relates to HepG2 cells. Put plainly: HepG2 viability by Trypan Blue exclusion. In kind it is cell-based, human. Conditions: HepG2, Mdivi-1, 24 hours. How it is done:
HepG2 cells were obtained from ATCC (Manassas, Va.), and cultured in EMEM with L-glutamine (ATCC) medium, 1% pen/strep, with and without 10% FBS (Thermo Fisher Scientific, Waltham, Mass.) in 12-well plates (Corning, Durham, N.C.). HepG2 cells were plated at a density of 60-70% prior to treatment to avoid clumping. Freshly isolated primary human hepatocytes plated at 100% confluency on 12-well plates were obtained from Thermo Fisher Scientific. Three donors were used to obtain experimental data: person, person, and a person. Primary hepatocytes were treated immediately upon arrival and cultured in William's E medium with hepatic maintenance supplement pack (Thermo Fisher Scientific), 1% pen/strep (VWR; Radnor, Pa.), and 10% FBS (Thermo Fisher Scientific). Cell viability was assessed by Trypan Blue exclusion using live/dead cell counting on a Countess™ II LT automated cell counter (Thermo Fisher Scientific).

The next data set relates to cellular PCSK9 protein. Put plainly: Western blot, primary human hepatocyte cellular PCSK9 protein. In kind it is cell-based. Conditions: primary human hepatocytes, Mdivi-1 50 μM, 24 hours.
In data set [1] the test system is PCSK9 secretion in HepG2 cells. Put plainly: Secreted PCSK9 ELISA, HepG2 media. Type of data set: cell-based, human. The conditions noted are these: HepG2, 24 hours; Mdivi-1 50 μM, pitavastatin 1 μM, T0901317 1 μM. For orientation: ELISA stands for enzyme-linked immunosorbent assay.
Method: Pitavastatin and T0901317 were synthesized and provided by Kowa Company, Ltd. (Tokyo, Japan), and treated at a dose of 1 μM in all experiments. […] Mdivi-1 in DMSO vehicle was added at a concentration of 50 μM in all experiments. Mdivi-1 in DMSO vehicle was added to cell culture media in a 50 mL tube, vortexed hard for several minutes and then incubated at 37° C. prior to adding to cells to ensure the compound was fully solubilized.
HepG2 cells were obtained from ATCC (Manassas, Va.), and cultured in EMEM with L-glutamine (ATCC) medium, 1% pen/strep, with and without 10% FBS (Thermo Fisher Scientific, Waltham, Mass.) in 12-well plates (Corning, Durham, N.C.). HepG2 cells were plated at a density of 60-70% prior to treatment to avoid clumping. […] Cell viability was assessed by Trypan Blue exclusion using live/dead cell counting on a Countess™ II LT automated cell counter (Thermo Fisher Scientific).
For a further data set, the system named is DRP1 protein. Kind of data set: Western blot, HepG2 DRP1 protein. Type of data set: cell-based, human. Conditions: HepG2, Mdivi-1 50 μM, 24 hours. For orientation: In western blotting, separated proteins are transferred to a membrane and probed.
A further data set relates to hepatocyte cytoskeleton. Kind of data set: Cytoskeleton gene panel and actin/microtubule confocal immunofluorescence. In kind it is cell-based. The conditions noted are these: HepG2 and primary human hepatocytes, Mdivi-1 50 μM, 24 hours.
A further data set has as its system naïve wild type rodents. Conditions: up to ten weeks after treatment, Mdivi-1 injection; cited from earlier work.
Data set [2] deals with diabetic apolipoprotein E-deficient mice. Conditions: cited from earlier work.
For another data set, the system named is p62. Kind of data set: Western blot, HepG2 p62 and p (S349) p62. The conditions noted are these: HepG2, 24 hours; Mdivi-1 50 μmol/L, MG132 0.3 μmol/L. Type of data set: cell-based, human.

This is an account of results in patent publication US10960020B2, “Modulation of PCSK9 and LDLR through DRP1 inhibition” (THE BRIGHAM AND WOMEN'S HOSPITAL, INC., priority 2016, dated 2021).

Entries after “also recorded” stand apart in the source; their conditions may differ.

Method for hepatocyte cytoskeleton: Filamentous actin was stained using CytoPainter Phallodin iFluor 555 Reagent (2 μl phalloidin in 2000 μl PBS with 1% BSA; Abcam), with a 60 minute incubation at room temperature. Slides were incubated with anti-alpha tubulin (1:200, Abcam, ab15246), PDI (1:100; 3501, Cell Signaling Technology), and anti-mitochondria (ab92824, Abcam) for 2 hours at room temperature or overnight at 4° C., followed by incubation with Alexa Fluor 488-labelled secondary antibody (1:200, Thermo Fisher Scientific). Nuclear staining was performed with DAPI (Thermo Fisher Scientific). Prior to visualization 200 μL PBS was added to each well. Liver tissue and cells were examined using a confocal microscope Al (Nikon Instruments Inc., Melville, N.Y.), and all images were processed with Elements 3.20 software (Nikon Instruments Inc.). Human cells and mouse liver was homogenized with TriZolTM (Life Technologies, Grand Island, N.Y.) to isolate RNA. […]

Take `COc1cc(-n2c(S)nc3ccccc3c2=O)c(Cl)cc1Cl` [Mdivi-1, 3-(2,4-Dichloro-5-methoxyphenyl)-2,3-dihydro-2-thioxo-4(1H)-quinazolinone]: the “Cellular PCSK9 mRNA” value with PCSK9 mRNA is recorded as “reduced; also recorded: strongly reduced”. Also, in the data set on HepG2 cells, the cell viability entry is “without altering”. For the same compound, the “cellular PCSK9 protein” value in the data set on cellular PCSK9 protein is on record as “without altering”. Moreover, the “PCSK9 secretion change by ELISA” value in data set [1] was −76.1%. The DRP1 protein content result in the data set with DRP1 protein is on record as “without altering”. For the same compound, the hepatocyte cytoskeleton entry in the data set with hepatocyte cytoskeleton is given as “did not alter”. For the same compound, in the data set with naïve wild type rodents, the “abnormal phenotypes or cytotoxicity” value is listed as “no abnormal phenotypes or cytotoxicity”. The “oxidative stress and inflammation” value in [2] is given as “reduces”. Besides, in the data set with p62, the p62 abundance entry is on record as “strongly increased” and the p62 phosphorylation entry is “increased”.
